Measurements reported in ChEMBL document CHEMBL1641597, “An efficient one-pot synthesis of benzothiazolo-4β-anilino-podophyllotoxin congeners: DNA topoisomerase-II inhibition and anticancer activity” (Bioorg Med Chem Lett, 2011).
Where a name gives a salt, the structure may show the parent alone. One block for each compound: values may come before it. The source made the active and inactive calls. No cut-off for these calls is given here.

Tests used:
[1] = target: DNA topoisomerase 2-alpha (Rattus norvegicus) (UniProt P41516); test: Inhibition of rat brain topoisomerase 2 assessed as relaxation of supercoiled pBR322 DNA
[2] = system: COLO 205; test: Cytotoxicity against human COLO205 assessed as inhibition of cell growth; assay type: functional, cell-based
[3] = system: HOP-62; test: Cytotoxicity against human HOP62 assessed as inhibition of cell growth; assay type: functional, cell-based
[4] = system: HT-1080; test: Cytotoxicity against human HT1080 assessed as inhibition of cell growth; assay type: functional, cell-based
[5] = Cytotoxicity against human DWD assessed as inhibition of cell growth; assay type: functional

Sequence of DNA topoisomerase 2-alpha (Rattus norvegicus) (P41516 whole entry): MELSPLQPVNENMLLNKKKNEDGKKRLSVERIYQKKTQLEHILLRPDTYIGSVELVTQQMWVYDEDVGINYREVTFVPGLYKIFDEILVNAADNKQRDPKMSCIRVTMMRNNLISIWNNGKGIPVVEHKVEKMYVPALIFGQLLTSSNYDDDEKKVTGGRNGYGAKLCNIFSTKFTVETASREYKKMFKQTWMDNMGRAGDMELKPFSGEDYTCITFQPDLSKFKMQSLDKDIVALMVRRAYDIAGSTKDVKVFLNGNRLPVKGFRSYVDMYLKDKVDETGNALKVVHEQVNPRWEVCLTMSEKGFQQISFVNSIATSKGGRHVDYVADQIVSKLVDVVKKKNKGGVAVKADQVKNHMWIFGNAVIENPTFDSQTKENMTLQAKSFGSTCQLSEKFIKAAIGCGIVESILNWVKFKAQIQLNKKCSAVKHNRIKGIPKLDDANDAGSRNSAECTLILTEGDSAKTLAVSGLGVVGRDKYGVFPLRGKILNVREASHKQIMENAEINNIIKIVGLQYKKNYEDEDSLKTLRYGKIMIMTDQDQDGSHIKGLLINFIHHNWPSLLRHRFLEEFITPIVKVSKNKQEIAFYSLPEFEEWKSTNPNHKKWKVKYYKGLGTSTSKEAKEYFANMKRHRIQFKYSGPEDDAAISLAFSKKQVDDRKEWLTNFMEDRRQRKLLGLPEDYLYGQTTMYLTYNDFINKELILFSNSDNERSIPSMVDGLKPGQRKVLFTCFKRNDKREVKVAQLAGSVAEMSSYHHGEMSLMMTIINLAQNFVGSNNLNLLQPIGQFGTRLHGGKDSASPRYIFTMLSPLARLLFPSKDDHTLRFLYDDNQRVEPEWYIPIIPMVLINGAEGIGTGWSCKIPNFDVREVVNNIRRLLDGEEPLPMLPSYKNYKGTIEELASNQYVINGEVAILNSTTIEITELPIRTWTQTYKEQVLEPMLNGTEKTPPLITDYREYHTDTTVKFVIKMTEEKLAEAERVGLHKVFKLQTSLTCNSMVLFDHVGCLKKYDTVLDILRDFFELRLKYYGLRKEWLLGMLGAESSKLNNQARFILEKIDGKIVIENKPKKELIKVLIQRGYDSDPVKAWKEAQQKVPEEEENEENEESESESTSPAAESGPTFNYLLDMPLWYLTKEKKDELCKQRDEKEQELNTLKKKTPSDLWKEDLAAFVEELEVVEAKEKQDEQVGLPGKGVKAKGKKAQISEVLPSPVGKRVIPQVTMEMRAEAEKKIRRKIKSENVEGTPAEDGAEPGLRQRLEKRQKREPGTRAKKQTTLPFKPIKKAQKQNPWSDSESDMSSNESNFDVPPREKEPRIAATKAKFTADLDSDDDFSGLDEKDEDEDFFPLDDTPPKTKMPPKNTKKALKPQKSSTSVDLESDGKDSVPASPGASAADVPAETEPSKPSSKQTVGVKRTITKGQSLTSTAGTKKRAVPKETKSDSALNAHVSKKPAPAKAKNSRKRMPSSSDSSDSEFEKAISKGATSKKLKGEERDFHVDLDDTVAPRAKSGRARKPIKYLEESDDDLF

inhibition [1]: Active
Compound: COc1cc([C@@H]2c3cc4c(cc3[C@@H](Nc3ccc(-c5nc6ccccc6s5)cc3Br)[C@H]3COC(=O)[C@H]23)OCO4)cc(OC)c1O

Compound: COc1cc([C@@H]2c3cc4c(cc3[C@@H](Nc3ccc(-c5nc6c(Cl)cccc6s5)cc3)[C@H]3COC(=O)[C@H]23)OCO4)cc(OC)c1O
IC50 [2]: 8.3 µM
IC50 [3]: 10.1 µM
IC50 [4]: > 80 µM
IC50 [5]: 9.1 µM

Compound: COc1cccc2c1C(=O)c1c(O)c3c(c(O)c1C2=O)C[C@@](O)(C(=O)CO)C[C@@H]3O[C@H]1C[C@H](N)[C@H](O)[C@H](C)O1 [DOXORUBICIN HYDROCHLORIDE]
IC50 [2]: 5.1 µM
IC50 [3]: 5.4 µM
IC50 [4]: 4.7 µM
IC50 [5]: 2.8 µM

inhibition [1]: Active
Compound: COc1cc([C@@H]2c3cc4c(cc3[C@@H](Nc3ccc(-c5nc6ccccc6s5)cc3)[C@H]3COC(=O)[C@H]23)OCO4)cc(OC)c1OC
IC50 [2]: 8.1 µM
IC50 [3]: > 80 µM
IC50 [4]: 8.2 µM
IC50 [5]: 22 µM

Compound: COc1ccc2nc(-c3ccc(N[C@@H]4c5cc6c(cc5[C@@H](c5cc(OC)c(OC)c(OC)c5)[C@H]5C(=O)OC[C@@H]54)OCO6)cc3)sc2c1
IC50 [2]: 7 µM
IC50 [3]: 15.2 µM
IC50 [4]: 9.5 µM
IC50 [5]: 5.2 µM

Compound: COc1cc([C@@H]2c3cc4c(cc3[C@@H](Nc3ccc(-c5nc6c(Cl)cccc6s5)cc3)[C@H]3COC(=O)[C@H]23)OCO4)cc(OC)c1OC
IC50 [2]: 7.1 µM
IC50 [3]: 60.3 µM
IC50 [4]: 9.1 µM
IC50 [5]: 7.3 µM

Compound: COc1cc([C@@H]2c3cc4c(cc3[C@@H](Nc3ccc(-c5nc6ccccc6s5)c(Cl)c3)[C@H]3COC(=O)[C@H]23)OCO4)cc(OC)c1O
IC50 [2]: 8.3 µM
IC50 [3]: 8.6 µM
IC50 [4]: > 80 µM
IC50 [5]: 6.5 µM

Compound: COc1cc([C@@H]2c3cc4c(cc3[C@H](O)[C@H]3COC(=O)[C@H]23)OCO4)cc(OC)c1OC [PODOFILOX]
IC50 [2]: 5 µM
IC50 [3]: 13.1 µM
IC50 [4]: 8.1 µM
IC50 [5]: 6.1 µM

inhibition [1]: Active
Compound: COc1ccc2nc(-c3ccc(N[C@@H]4c5cc6c(cc5[C@@H](c5cc(OC)c(O)c(OC)c5)[C@H]5C(=O)OC[C@@H]54)OCO6)cc3)sc2c1

inhibition [1]: Active
Compound: COc1cc([C@@H]2c3cc4c(cc3[C@@H](Nc3ccc(-c5nc6ccccc6s5)cc3)[C@H]3COC(=O)[C@H]23)OCO4)cc(OC)c1O
IC50 [2]: 2.7 µM
IC50 [3]: 30.1 µM
IC50 [4]: 9.7 µM
IC50 [5]: 2.3 µM
